Test: Body and organ weights after PCB52 nose-only inhalation
Type: in vivo, Sprague–Dawley rats
Details: for Kidneys weight / Liver weight / Lung weight / Reproductive organ weight / Spleen weight / Thymus weight / Adrenal Glands weight / Body Weight Post Exposure: n=6; for Relative Organ Weights, Brain / Relative Organ Weights, Kidneys / Relative Organ Weights, Liver / Relative Organ Weights, Lung / Relative Organ Weights, Spleen / Relative Organ Weights, Testies / Relative Organ Weights, Thymus: Males, mean (standard deviation)
Protocol: The Institutional Animal Care and Use Committee of the University of Iowa approved all of the animal protocols. Animals were housed in a temperature- and humidity-controlled room (21 °C, 55% relative humidity) with a 12 h light/dark cycle in an Association for the Assessment and Accreditation of Laboratory Animal Care (AAALAC) accredited animal facility. Animals were provided with food (sterile Teklad 5% stock diet, Harlan, Madison, WI) and water ad libitum throughout the study. Thirty-six male and female Sprague–Dawley rats (7 weeks of age; Charles River, Wilmington, MA) were allowed to acclimate to the animal facility for 8 days after arrival. Prior to exposure, rats (227 ± 27 and 197 ± 13 g, male and female, respectively) were randomly assigned to the exposure groups (n = 6 per group) using a random number generated (Excel, version 2307). Animals were simultaneously exposed for 4 h to a low or high concentration of PCB52-laden per sex) or filtered lab air (Figure 1A). Exposure duration was limited to 4 h along with scheduled training days (30 min at 55 days of age and 2 h at 56 days of age) to acclimate animals and minimize stress. […] Animal exposure occurred for 4 h at 57 days of age. Rats are considered adolescents at this age.[38] Serum was collected immediately after the animals were removed from the nose-only apparatus by cardiac puncture under isoflurane anesthesia. Rats were perfused with saline, and organs were excised and stored at −80 °C. Body and organ weights, including brain, lungs, and thymus, were not altered by PCB52 inhalation regardless of sex or exposure (Tables S2 and S3).

Clc1ccc(Cl)c(-c2cc(Cl)ccc2Cl)c1 [PCB52, 2,2′,5,5′-tetrachlorobiphenyl]
Kidneys weight (High exposure group, female): 1.85 grams | Liver weight (High exposure group, female): 8.29 grams | Lung weight (High exposure group, female): 1.23 grams | Reproductive organ weight (High exposure group, female): 0.59 ± 0.16 grams | Spleen weight (High exposure group, female): 0.44 grams | Thymus weight (High exposure group, female): 0.58 ± 0.06 grams | Adrenal Glands weight (High exposure group, male): 0.03 grams | Body Weight Post Exposure (High exposure group, male): 192.17 ± 22.01 grams | Kidneys weight (High exposure group, male): 1.73 grams | Liver weight (High exposure group, male): 9.28 grams | Lung weight (High exposure group, male): 1.52 grams | Reproductive organ weight (High exposure group, male): 1.82 ± 0.52 grams | Spleen weight (High exposure group, male): 0.53 grams | Thymus weight (High exposure group, male): 0.56 ± 0.05 grams | Adrenal Glands weight (Low exposure group, female): 0.04 grams | Body Weight Post Exposure (Low exposure group, female): 183.46 ± 14.31 grams | Kidneys weight (Low exposure group, female): 1.70 grams | Liver weight (Low exposure group, female): 8.11 grams | Lung weight (Low exposure group, female): 1.24 grams | Reproductive organ weight (Low exposure group, female): 0.55 ± 0.10 grams | Spleen weight (Low exposure group, female): 0.47 grams | Thymus weight (Low exposure group, female): 0.61 ± 0.12 grams | Adrenal Glands weight (Low exposure group, male): 0.04 grams | Body Weight Post Exposure (Low exposure group, male): 228.20 ± 14.09 grams | Kidneys weight (Low exposure group, male): 1.99 grams | Liver weight (Low exposure group, male): 10.31 grams | Lung weight (Low exposure group, male): 1.48 grams | Reproductive organ weight (Low exposure group, male): 2.51 ± 0.14 grams | Spleen weight (Low exposure group, male): 0.59 grams | Thymus weight (Low exposure group, male): 0.70 ± 0.15 grams | Relative Organ Weights, Brain (High): 0.010 (0.001) g/g BW | Relative Organ Weights, Kidneys (High): 0.009 (0.001) g/g BW | Relative Organ Weights, Liver (High): 0.048 (0.003) g/g BW | Relative Organ Weights, Lung (High): 0.008 (0.002) g/g BW | Relative Organ Weights, Spleen (High): 0.003 (0.001) g/g BW | Relative Organ Weights, Testies (High): 0.009 (0.002) g/g BW | Relative Organ Weights, Thymus (High): 0.003 (0.001) g/g BW | Relative Organ Weights, Brain (Low): 0.008 (0.001) g/g BW | Relative Organ Weights, Kidneys (Low): 0.009 (0.001) g/g BW | Relative Organ Weights, Liver (Low): 0.045 (0.002) g/g BW | Relative Organ Weights, Lung (Low): 0.007 (0.002) g/g BW | Relative Organ Weights, Spleen (Low): 0.003 (0.001) g/g BW | Relative Organ Weights, Testies (Low): 0.011 (0.001) g/g BW | Relative Organ Weights, Thymus (Low): 0.003 (0.001) g/g BW | Body and organ weights, including brain, lungs, and thymus (regardless of sex or exposure): not altered
